Experimental data from US20180071242A1, “SUBSTITUTED ACYLANILIDES AND METHODS OF USE THEREOF” (University of Tennessee Research Foundation, priority 2006, published 2018).

Tests used:
[1] = target: T1, CYP1A2 (Homo sapiens, UniProt P05177); assay: CYP inhibition screening, recombinant enzyme (fluorescent-based) assay
T1 sequence (P05177 1-516): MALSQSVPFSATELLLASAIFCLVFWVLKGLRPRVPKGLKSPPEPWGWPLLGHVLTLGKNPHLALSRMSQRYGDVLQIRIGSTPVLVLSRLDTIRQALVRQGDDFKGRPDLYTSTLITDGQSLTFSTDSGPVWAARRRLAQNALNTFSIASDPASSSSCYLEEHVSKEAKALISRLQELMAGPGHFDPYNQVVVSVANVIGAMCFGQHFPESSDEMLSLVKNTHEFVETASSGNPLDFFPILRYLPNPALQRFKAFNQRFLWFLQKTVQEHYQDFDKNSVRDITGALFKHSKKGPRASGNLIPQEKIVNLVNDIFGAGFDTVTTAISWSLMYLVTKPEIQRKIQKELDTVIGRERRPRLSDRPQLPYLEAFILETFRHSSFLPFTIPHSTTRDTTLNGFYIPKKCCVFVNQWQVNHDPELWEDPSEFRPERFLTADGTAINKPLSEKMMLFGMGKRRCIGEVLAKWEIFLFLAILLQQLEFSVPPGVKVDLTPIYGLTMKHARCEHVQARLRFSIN
Experimental: (§1) Human recombinant CYP enzymes and fluorescence-based substrates were used to determine the IC50 values of S-(I) against CYP3A4, 2D6, 2C19, 2C9, and 1A2.
(§2) CYP inhibition screening procedures were performed essentially according to the manufacturer's instructions (Gentest, BD Biosciences, Waltham, Mass.). Briefly, CYP enzyme inhibition was measured using human cDNA-expressed CYP3A4, 2D6, 2C19, 2C9, and 1A2 enzymes. Analogs of the model substrate coumarin were utilized for each isoenzyme.
(§3) The concentration of acetonitrile was kept constant at 0.4%, and the reaction was carried out at 37° C. for 30 minutes.
(§4) For IC50 determination, data was fitted using the non-linear regression equation “sigmoidal dose response, variable slope” defined as: Y=Bottom+(Top-Bottom)/(1+10̂((Log EC50−X)*HillSlope)) where X is the logarithm of concentration of the indicated compound, and Y is the response.

[2] = target: CYP2D6 (Homo sapiens, UniProt P10635); assay: as above
Experimental: as §1, §2, §3, §4

[3] = target: T2, CYP2C9 (Homo sapiens, UniProt P11712); assay: as above; format: in vitro ADME; settings: for Inhibition of CYP2C9 activity (in words): human, 30 min
T2 construct: purchased Gentest, BD Biosciences

[4] = target: T3, ER-β (Rattus norvegicus, UniProt Q62986); assay: Transient transfection luciferase transactivation assay in HEK-293 cells; format: cell-based; settings: for ER-β transactivation, agonist mode (in words): up to the highest tested concentration (1 μM); for Inhibition of estradiol-induced ER-β activity, antagonist mode (in words): with 1 nM estradiol
T3 construct: expressed in transfected cells; host or cells: HEK-293

[5] = target: T4, GR (Rattus norvegicus, UniProt P06536); assay: as above; format: cell-based; settings: for GR-mediated transactivation, agonist mode (in words): all tested concentrations; for Inhibition of dexamethasone-induced GR-mediated transactivation, antagonist mode (in words): with 1 nM dexamethasone
T4 construct: expressed in transfected cells; host or cells: HEK-293
T4 sequence (P06536 1-795): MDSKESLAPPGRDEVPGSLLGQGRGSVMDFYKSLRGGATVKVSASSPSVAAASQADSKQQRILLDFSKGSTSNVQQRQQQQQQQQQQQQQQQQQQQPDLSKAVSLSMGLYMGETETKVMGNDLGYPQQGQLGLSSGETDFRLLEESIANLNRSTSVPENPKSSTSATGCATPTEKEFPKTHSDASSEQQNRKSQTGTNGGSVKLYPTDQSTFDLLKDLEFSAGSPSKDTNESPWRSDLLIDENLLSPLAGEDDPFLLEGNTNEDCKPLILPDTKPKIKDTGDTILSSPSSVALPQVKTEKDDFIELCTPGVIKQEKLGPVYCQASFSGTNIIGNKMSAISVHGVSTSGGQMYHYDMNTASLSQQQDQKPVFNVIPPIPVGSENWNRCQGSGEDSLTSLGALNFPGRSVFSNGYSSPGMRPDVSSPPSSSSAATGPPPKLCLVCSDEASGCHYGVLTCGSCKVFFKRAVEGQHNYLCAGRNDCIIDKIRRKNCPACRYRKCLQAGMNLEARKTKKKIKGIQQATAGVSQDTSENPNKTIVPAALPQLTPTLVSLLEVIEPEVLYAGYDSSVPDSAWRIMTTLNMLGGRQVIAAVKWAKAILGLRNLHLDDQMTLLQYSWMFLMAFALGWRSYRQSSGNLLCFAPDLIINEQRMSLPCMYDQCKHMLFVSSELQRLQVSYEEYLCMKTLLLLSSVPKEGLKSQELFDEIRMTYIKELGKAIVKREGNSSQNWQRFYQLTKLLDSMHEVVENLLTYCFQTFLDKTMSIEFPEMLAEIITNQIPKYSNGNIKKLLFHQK

[6] = test system: intact male Sprague-Dawley rats; assay: Anabolic and androgenic activity in intact male rats; format: in vivo, rat
Experimental: (§5) Anabolic and androgenic efficacy of compound of formula (I) administered by daily oral gavage were tested. The S-isomer of compound (I) [S-(I)] was synthesized and tested as described herein.
The test article for this study was weighed and dissolved in 10% DMSO (Fischer) diluted with PEG 300 (Acros Organics, NJ) for preparation of the appropriate dosage concentrations. The animals were housed in groups of 2 to 3 animals per cage. Animals were randomly assigned to one of seven groups consisting of 4 to 5 animals per group. Control groups (intact and ORX) were administered vehicle daily. S-(I) was administered via oral gavage at doses of 0.01, 0.03, 0.1, 0.3, 0.75, and 1 mg/day to both intact and ORX groups. Where appropriate, animals were castrated on day one of the study. […]
The animals were sacrificed under anesthesia (ketamine/xyalzine, 87:13 mg/kg) and body weights were recorded. In addition, ventral prostate, seminal vesicles, and levator ani muscle were removed, individually weighed, normalized to body weight, and expressed as a percentage of intact control. […] Ventral prostate and seminal vesicle weights were evaluated as a measure of androgenic activity, whereas levator ani muscle weight was evaluated as a measure of anabolic activity. […] Serum luteinizing hormone (LH) and follicle stimulating hormone (FSH) concentrations were determined.

[7] = test system: orchidectomized (ORX) male Sprague-Dawley rats; assay: Anabolic and androgenic activity in castrated (ORX) male rats; format: in vivo, rat; settings: for Seminal vesicles weight: castrated (ORX) rats, oral gavage; for Anabolic ratio (muscle/prostate weight): castrated rats
Experimental: as §5
The test article for this study was weighed and dissolved in 10% DMSO (Fischer) diluted with PEG 300 (Acros Organics, NJ) for preparation of the appropriate dosage concentrations. The animals were housed in groups of 2 to 3 animals per cage. Animals were randomly assigned to one of seven groups consisting of 4 to 5 animals per group. Control groups (intact and ORX) were administered vehicle daily. S-(I) was administered via oral gavage at doses of 0.01, 0.03, 0.1, 0.3, 0.75, and 1 mg/day to both intact and ORX groups. Where appropriate, animals were castrated on day one of the study. Treatment with S-(I) began nine days post ORX and was administered daily via oral gavage for fourteen days.
The animals were sacrificed under anesthesia (ketamine/xyalzine, 87:13 mg/kg) and body weights were recorded. In addition, ventral prostate, seminal vesicles, and levator ani muscle were removed, individually weighed, normalized to body weight, and expressed as a percentage of intact control. Student's T-test was used to compare individual dose groups to the intact control group. Significance was defined a priori as a P-value <0.05. Ventral prostate and seminal vesicle weights were evaluated as a measure of androgenic activity, whereas levator ani muscle weight was evaluated as a measure of anabolic activity. Blood was collected from the abdominal aorta, centrifuged, and sera were frozen at −80° C. prior to determination of serum hormone levels. Serum luteinizing hormone (LH) and follicle stimulating hormone (FSH) concentrations were determined.

T2 sequence (P11712 whole entry): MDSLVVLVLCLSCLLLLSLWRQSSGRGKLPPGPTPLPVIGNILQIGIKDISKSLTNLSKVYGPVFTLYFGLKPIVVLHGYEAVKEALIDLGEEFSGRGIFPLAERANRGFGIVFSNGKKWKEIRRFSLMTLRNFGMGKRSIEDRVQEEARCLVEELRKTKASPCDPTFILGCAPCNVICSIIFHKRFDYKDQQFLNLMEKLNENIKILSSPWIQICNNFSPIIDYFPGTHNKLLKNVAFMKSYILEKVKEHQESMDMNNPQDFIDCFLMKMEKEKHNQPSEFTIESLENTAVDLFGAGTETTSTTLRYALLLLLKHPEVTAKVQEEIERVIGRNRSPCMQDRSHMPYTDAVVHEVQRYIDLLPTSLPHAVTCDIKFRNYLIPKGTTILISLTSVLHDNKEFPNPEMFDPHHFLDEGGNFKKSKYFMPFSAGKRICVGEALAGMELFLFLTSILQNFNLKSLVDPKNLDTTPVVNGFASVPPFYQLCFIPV
T3 sequence (Q62986 whole entry): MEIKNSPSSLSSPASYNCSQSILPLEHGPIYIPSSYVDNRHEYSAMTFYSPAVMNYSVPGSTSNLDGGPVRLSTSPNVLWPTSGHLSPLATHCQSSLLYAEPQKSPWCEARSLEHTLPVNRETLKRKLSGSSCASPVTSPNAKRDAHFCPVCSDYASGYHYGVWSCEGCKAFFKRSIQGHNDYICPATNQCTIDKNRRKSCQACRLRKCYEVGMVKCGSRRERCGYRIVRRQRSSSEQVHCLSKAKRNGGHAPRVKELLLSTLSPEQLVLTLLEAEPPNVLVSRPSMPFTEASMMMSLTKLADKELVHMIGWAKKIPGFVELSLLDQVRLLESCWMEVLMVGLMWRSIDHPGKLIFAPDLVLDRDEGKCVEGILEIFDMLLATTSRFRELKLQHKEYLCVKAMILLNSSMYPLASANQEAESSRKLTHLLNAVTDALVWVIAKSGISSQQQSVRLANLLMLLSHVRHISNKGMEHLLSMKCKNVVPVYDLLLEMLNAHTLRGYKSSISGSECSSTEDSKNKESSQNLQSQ
Sequence of CYP2D6 (P10635 whole entry): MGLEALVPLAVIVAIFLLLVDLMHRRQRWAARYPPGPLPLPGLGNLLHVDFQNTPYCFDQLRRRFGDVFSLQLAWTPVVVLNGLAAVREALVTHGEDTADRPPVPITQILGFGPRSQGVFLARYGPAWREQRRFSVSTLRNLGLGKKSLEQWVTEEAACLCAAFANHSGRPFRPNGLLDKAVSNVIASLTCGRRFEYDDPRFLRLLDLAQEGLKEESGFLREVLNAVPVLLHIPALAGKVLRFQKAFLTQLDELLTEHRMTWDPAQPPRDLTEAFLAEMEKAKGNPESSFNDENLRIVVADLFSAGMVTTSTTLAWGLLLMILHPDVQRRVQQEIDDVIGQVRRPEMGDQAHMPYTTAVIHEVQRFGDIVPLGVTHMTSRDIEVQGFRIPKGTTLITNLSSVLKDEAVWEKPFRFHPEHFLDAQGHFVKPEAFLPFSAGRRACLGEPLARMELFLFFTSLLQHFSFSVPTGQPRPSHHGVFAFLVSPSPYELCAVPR

| SMILES | IC50 [1] [µM] | IC50 [2] [µM] | IC50 [3] [µM] | Inhibition of CYP2C9 activity (in words) [3] | ER-β transactivation, agonist mode (in words) [4] | Inhibition of estradiol-induced ER-β activity, antagonist mode (in words) [4] | GR-mediated transactivation, agonist mode (in words) [5] | Inhibition of dexamethasone-induced GR-mediated transactivation, antagonist mode (in words) [5] | further results |
| --- | --- | --- | --- | --- | --- | --- | --- | --- | --- |
| C[C@](O)(COc1ccc(F)cc1)C(=O)Nc1ccc(C#N)c(C(F)(F)F)c1 [S-(III)] | > 20 | > 20 | 1.3 | moderate inhibition | failed to activate | failed to alter | did not induce | not inhibited | – |
| C[C@](O)(COc1ccc(C#N)cc1)C(=O)Nc1ccc(C#N)c(Cl)c1 [S-(I), (S)—N-(3-chloro-4-cyanophenyl)-3-(4-cyanophenoxy)-2-hydroxy-2-methylpropanamide] | > 20 | > 20 | 5.1 | did not appreciably inhibit | failed to activate | failed to alter | failed to activate | failed to alter | Seminal vesicles weight (in words) [6]: decreases; Seminal vesicles weight ([7]; 0.01 mg/day): 10%±3%; Seminal vesicles weight ([7]; 0.03 mg/day): 13%±4%; Seminal vesicles weight ([7]; 0.1 mg/day): 21%±6%; Seminal vesicles weight ([7]; 0.3 mg/day): 43%±8%; Seminal vesicles weight ([7]; 0.75 mg/day): 51%±9%; Seminal vesicles weight ([7]; 1 mg/day): 69%±14%; Anabolic ratio (muscle/prostate weight) ([7]; 0.01 mg/day): 3.02; Anabolic ratio (muscle/prostate weight) ([7]; 0.03 mg/day): 2.13; Anabolic ratio (muscle/prostate weight) ([7]; 0.1 mg/day): 2.27; Anabolic ratio (muscle/prostate weight) ([7]; 0.3 mg/day): 1.90; Anabolic ratio (muscle/prostate weight) ([7]; 0.75 mg/day): 1.83; Anabolic ratio (muscle/prostate weight) ([7]; 1 mg/day): 1.51 |
| C[C@](O)(COc1ccc(Cl)cc1)C(=O)Nc1ccc(C#N)c(C(F)(F)F)c1 [S-(II)] | > 20 | > 20 | 3.8 | moderate inhibition | failed to activate | failed to alter | did not induce | not inhibited | – |
